The values that follow come from US12351593B2, “Platinum IV complexes with substantially increased antitumor efficacy” (priority 2019, dated 2025).

As usually defined, the IC50 is the concentration needed to halve the response being measured. The low end stands for higher potency, the high end for lower potency.

Molecules are shown by their SMILES. A value given as a limit tells only on which side of the number the result lay.

Assay [1] relates to cancer cell line Capan-2 (pancreas adenocarcinoma, DSMZ, ACC-245). Description: XTT test of antitumor efficacy in vitro, Capan-2. Type of assay: cell-based. As to conditions: 72 hours exposure. From the text:
(§1) XTT method was used in the in vitro experiments. We tested mother platinum (IV) complex TU31 (where X=Cl^−), three new platinum (IV) complexes according to the invention, where X=ClCH2COO^− (complex TU105), F3CCOO^− (complex TU106) and NO3^− (complex TU113), reference platinum (II) complex Oxaliplatin and reference platinum (IV) complex Satraplatin. Two cancer cell lines of heavy-to-treat tumors Capan-2 (pancreas adenocarcinoma) and PC-3 (prostate carcinoma) were used in XTT tests. The obtained results are summarized in the form of IC50 values in the following Table 1:
(§2) Antitumor efficacy of the new Pt(IV) complexes according to the invention was studied on heavy to treat cancer lines of pancreas and prostate. XTT method was used. Results were evaluated in IC50 values and compared with reference Pt(II) complex Oxaliplatin and reference Pt (IV) complex Satraplatin.
(§3) Fresh tumor cell lines were purchased from the Cell Bank to ensure their quality and activities. • a) Capan-2, pancreatic ductal adenocarcinoma, DSMZ, ACC-245 • b) PC-3, prostate carcinoma, ATCC® CRL1435™ Cultivation's Conditions of Tumor Cell Lines: Abbreviation of Used Compounds: • DMSO: dimethyl sulfoxide • PBS: phosphate buffered saline • XTT: 2,3-bis-(2-methoxy-4-nitro-5-sulphophenyl)-2H-tetrazolium-5-carboxanilide salt • PMS: N-methyl-dibenzopyrazinmethylsulfate • FBS: fetal bovine serum • NEAA: non-essential amino acids • L-glu: L-glutamine • DMEM: Dulbecco's Modified Eagle's Medium (SigmaAldrich) • PMS: phenazine methosulfate • Cultivation's conditions: 37° C., 5% CO2 • Growth medium: DMEM, 10% FBS, 2 mM L-glut., NEAA 100× XTT Working Procedure:
(§4) Tested compounds were dissolved in DMSO and diluted by PBS to tested concentration range just before addition to cell lines in wells. PBS was used as a positive control, DMSO in final concentration 20% was used as a negative control. All concentrations of compounds were assayed in triplicates. Each determination was carried out twice and was blinded for experimenter.
(§5) Testing was conducted on a 96-well plate. Dosage of tumor cells was about 2.5. 10^4 cells per well, dosage of growth medium was 100 μl per well. After 24 hours, the growth medium was suck off and 80 μl of fresh growth medium and 20 μl of solution with different concentration of the tested substance were added to wells. After 72 hours, the medium was suck off and 100 μl of a solution of Optimem reagent containing XTT and PMS were added to wells. After another 4 hours, the absorbance was measured at 450 nm (reference was at 630 nm). Results as IC50 were evaluated from the graph of normalized viability of cells plotted against the logarithm of the concentration of the substance.
Background: Formazan colour is commonly taken as a measure of viable cells.

For assay [2], the system named is cancer cell line PC-3 (prostate carcinoma, ATCC CRL-1435). The assay can be described thus: XTT test of antitumor efficacy in vitro, PC-3. Type of assay: cell-based. As to conditions: 72 hours exposure.
Source text: as §1, §2, §3, §4, §5

The test system of assay [3] is PaTu8902, pancreas adenocarcinoma, metastatic, grade II (DSMZ, ACC-179). Description: Antitumor efficacy in vivo, athymic mice model, subcutaneous PaTu8902 tumor. More on the design: species or system mice (Athymic Nude-FOXN-1^nu). As to conditions: PaTu8902, oral dose 20 mg/kg; for Average tumor weight 28 d / TWI % (tumor weight inhibition): 28 d; for Average volume of tumor 1 d: day 1; for Average volume of tumor 4 d: day 4; for Average volume of tumor 8 d: day 8; for Average volume of tumor 11 d: day 11; for Average volume of tumor 15 d: day 15; for Average volume of tumor 18 d: day 18; for Average volume of tumor 22 d: day 22; for Average volume of tumor 25 d: day 25; for Average volume of tumor 29 d: day 29; for TVI % (tumor volume inhibition): end of experiment. An excerpt: (§6) Two new platinum (IV) complexes TU105 and TU106 from XTT tests were further studied in vivo on athymic mice model with two pancreatic tumors. The platinum (IV) complex Satraplatin and mother complex TU31 were used as reference compounds again. Two heavy-to-treat tumors of pancreas Capan-2 and PaTu8902 were cultivated and then subcutaneously administered to mice at a dose of 1.10^7 cells/mouse. After an increase in the subcutaneous tumors to a volume of about 0.2 cm^3, two doses of respective complexes 2×20 mg/kg were administered orally every 1 week. Control group of mice received no drug. Volume of tumors were continuously measured throughout the experiment. Three weeks after the second dose, mice were sacrificed, tumors removed, weighed and obtained data were evaluated in the form of tumor volume inhibition in % (TVI %) and tumor weight inhibition in % (TWI %), where: TVI %=100−[(TVexp/TVcont)×100] • TVexp=average volume of cured tumors in cm^3 • TVcont=average volume of control tumors in cm^3 TWI %=100−[(TWexp/TWcont)×100] • TWexp=average weight of cured tumors in g • TWcont=average weight of control tumors in g
(§7) In vivo model: Athymic Nude-FOXN-1^nu, 6 mice per group (3 male+3 female)
(§8) • a) Capan-2, pancreatic adenocarcinoma, ductal (DSMZ, ACC-245) • b) […], pancreatic adenocarcinoma, ductal, high metastatic, grade II (DSMZ, ACC-179) Used Pt (IV) Complexes: • a) the reference Pt (IV) complex Satraplatin, detailed specification, see example 4. • b) the mother Pt (IV) complex TU31, detailed specification, see example 4. • c) the new Pt (IV) complex TU105, detailed specification, see example 4. • d) the new Pt (IV) complex TU106, detailed specification, see example 4. Used Doses for Oral Administration:
(§9) The homogenous bulk composition of the each tested Pt (IV) complex (20 mass. %) with Gelucire 50/13 (80 mass. %) was converted to water emulsion before oral administration to mice.
(§10) Cultivation conditions of cancer cell lines: 37° C., 5% CO2, DMEM (Dulbecco's Modified Eagle's Medium, Sigma Aldrich), 10% FBS, (fetal bovine serum), 2 mM L-glutamin, non-essential aminoacids
(§11) Transplantation of cancer cells: A dose 1×10^7 of cells was subcutaneously transplanted to each experimental mouse, then mice were subdivided into individual experimental groups.
(§12) After an increase in the subcutaneous tumors to a volume of about 0.2 cm^3, two doses of respective complexes 2×20 mg/kg were administered orally every 1 week. The control group of mice received no drug. Volume of tumors were continuously measured throughout the experiment. Three weeks after the second dose, mice were sacrificed, tumors removed, weighed and obtained data were evaluated in the form of tumor volume inhibition in % (TVI %) and tumor weight inhibition in % (TWI %), where: TVI %=100−[(TVexp/TVcont)×100] • TVexp=average volume of cured tumors in cm^3 • TVcont=average volume of control tumors in cm^3 TWI %=100−[(TWexp/TWcont)×100] • TWexp=average weight of cured tumors in g • TWcont=average weight of control tumors in g Obtained Results: […]

The subject of assay [4] is Capan-2, pancreas adenocarcinoma (DSMZ, ACC-245). The assay can be described thus: Antitumor efficacy in vivo, athymic mice model, subcutaneous Capan-2 tumor. Set-up: species or system mice (Athymic Nude-FOXN-1^nu). As to conditions: for Average tumor weight 28 d / TWI % (tumor weight inhibition) / Average tumor volume 1 d / Average tumor volume 4 d / Average tumor volume 8 d / Average tumor volume 11 d / Average tumor volume 15 d / Average tumor volume 18 d / Average tumor volume 22 d / Average tumor volume 25 d / Average tumor volume 29 d / TVI % (tumor volume inhibition): Capan-2, oral dose 20 mg/kg; for Average tumor weight 28 d / TWI % (tumor weight inhibition): 28 d; for Average tumor volume 1 d: day 1; for Average tumor volume 4 d: day 4; for Average tumor volume 8 d: day 8; for Average tumor volume 11 d: day 11; for Average tumor volume 15 d: day 15; for Average tumor volume 18 d: day 18; for Average tumor volume 22 d: day 22; for Average tumor volume 25 d: day 25; for Average tumor volume 29 d: day 29; for TVI % (tumor volume inhibition): end of experiment.
Source text: as §6, §7, §8, §9, §10, §11, §12

In the case of `N[C@@H]1CCCC[C@H]1N.O=C([O-])C(=O)[O-].[Pt+2]` [Oxaliplatin, (1R,2R-1,2-cyclohexanediamine-N,N′) (ethanedioato-O,O′) platinum (II), reference compound], the half-inhibitory concentration (IC50) was above 100000 nM in assay [1] and 55700 nM in assay [2].
`CC(=O)[O][Pt]([NH2])([Cl])([Cl])([NH]C1CCCCC1)[O]C(C)=O` [Satraplatin, cis-(ammine, cyclohexylamine)-trans-bis-acetate-cis-dichloride Pt(IV), reference compound]: in assay [3], the “Average tumor weight 28 d” value turned out to be 7.245 g, the “TWI % (tumor weight inhibition)” value was 11.5%, the “Average volume of tumor 1 d” value stood at 0.21 cm^3 and the “Average volume of tumor 4 d” value stood at 0.50 cm^3. Further, in assay [3], the “Average volume of tumor 8 d” value was 0.99 cm^3, the “Average volume of tumor 11 d” value amounted to 1.94 cm^3, the “Average volume of tumor 15 d” value came out at 3.10 cm^3 and the “Average volume of tumor 18 d” value turned out to be 4.80 cm^3. Moreover, in assay [3], the “Average volume of tumor 22 d” value is recorded as 6.80 cm^3, the “Average volume of tumor 25 d” value is listed as 9.35 cm^3, the “Average volume of tumor 29 d” value is recorded as 11.90 cm^3 and the “TVI % (tumor volume inhibition)” value was determined as 12.8%. Further, the IC50 in assay [1] is above 30000 nM. Also, in assay [4], the “Average tumor weight 28 d” value was 0.711 g, the “TWI % (tumor weight inhibition)” value turned out to be 10.3%, the “Average tumor volume 1 d” value is 0.21 cm^3 and the “Average tumor volume 4 d” value is listed as 0.23 cm^3. Moreover, in assay [4], the “Average tumor volume 8 d” value came to 0.30 cm^3, the “Average tumor volume 11 d” value came out at 0.39 cm^3, the “Average tumor volume 15 d” value was found to be 0.47 cm^3 and the “Average tumor volume 18 d” value was found to be 0.56 cm^3. Further, in assay [4], the “Average tumor volume 22 d” value is recorded as 0.66 cm^3, the “Average tumor volume 25 d” value is on record as 0.77 cm^3, the “Average tumor volume 29 d” value is 0.90 cm^3 and the “TVI % (tumor volume inhibition)” value turned out to be 10.0%. Also, inhibition in assay [2] was half-maximal at 10200 nM (IC50).
On to `[NH3+][Pt-2]([Cl])([NH2+]C12CC3CC(CC(C3)C1)C2)([O]C(=O)CCl)([O]C(=O)C12CC3CC(CC(C3)C1)C2)[O]C(=O)C12CC3CC(CC(C3)C1)C2` [TU105, cis-(ammine,1-adamantylamine)-trans-bis(1-adamantylcarboxylate)-cis-(chloride, monochloroacetate) Pt (IV)], for which, in assay [3], the “Average tumor weight 28 d” value was found to be 2.522 g, the “TWI % (tumor weight inhibition)” value is listed as 69.2%, the “Average volume of tumor 1 d” value turned out to be 0.21 cm^3 and the “Average volume of tumor 4 d” value was 0.21 cm^3. Moreover, in assay [3], the “Average volume of tumor 8 d” value came to 0.40 cm^3, the “Average volume of tumor 11 d” value was determined as 0.62 cm^3, the “Average volume of tumor 15 d” value came out at 1.06 cm^3 and the “Average volume of tumor 18 d” value is on record as 1.65 cm^3. In assay [3], the “Average volume of tumor 22 d” value was found to be 2.46 cm^3, the “Average volume of tumor 25 d” value is listed as 3.40 cm^3, the “Average volume of tumor 29 d” value is listed as 4.35 cm^3 and the “TVI % (tumor volume inhibition)” value is 68.1%. In assay [1], this compound returned an IC50 of 40 nM. In addition, in assay [4], the “Average tumor weight 28 d” value amounted to 0.213 g, the “TWI % (tumor weight inhibition)” value is given as 73.1%, the “Average tumor volume 1 d” value is given as 0.20 cm^3 and the “Average tumor volume 4 d” value was determined as 0.21 cm^3. In assay [4], the “Average tumor volume 8 d” value was determined as 0.22 cm^3, the “Average tumor volume 11 d” value is reported as 0.23 cm^3, the “Average tumor volume 15 d” value is listed as 0.27 cm^3 and the “Average tumor volume 18 d” value is on record as 0.30 cm^3. Further, in assay [4], the “Average tumor volume 22 d” value is on record as 0.34 cm^3, the “Average tumor volume 25 d” value worked out at 0.37 cm^3, the “Average tumor volume 29 d” value was determined as 0.40 cm^3 and the “TVI % (tumor volume inhibition)” value came out at 60.0%. In addition, the “anti-tumor efficacy (TWI %), times greater than for reference Satraplatin” value in assay [4] (both pancreatic tumors Capan-2 and PaTu8902) was “about 7 times”. In assay [2], the IC50 amounted to 60 nM.
For the compound `[NH3+][Pt-2]([Cl])([NH2+]C12CC3CC(CC(C3)C1)C2)([O]C(=O)C12CC3CC(CC(C3)C1)C2)([O]C(=O)C12CC3CC(CC(C3)C1)C2)[O][N+](=O)[O-]` [TU113, cis-(ammine,1-adamantylamine)-trans-bis(1-adamantylcarboxylate)-cis-(chloride, nitrate) Pt (IV)], the half-inhibitory concentration (IC50) in assay [1] turned out to be 110 nM; in assay [2], 230 nM.
